Reference: patent publication US11446353B2, “Compositions and methods for the treatment of fungal infections” (priority 2014, dated 2022)

Legend:
[1] = system: Coccidioides posadasii Δcts2/Δard1/Δcts3; type: cell-based
[2] = system: Coccidioides posadasii Δcts2/Δard1/Δcts3

CC/C(=C(\c1ccccc1)c1ccc(OCCN(C)C)cc1)c1ccccc1 [Tamoxifen]
hit strength in screen [1]: strong positive hit | fungal growth inhibitory properties [2]: strong fungal growth inhibitory properties
